Results: patent publication US11613538B2, “Method of inhibiting or reducing a viral infection” (PTC Therapeutics, Inc., priority 2009, dated 2023)
“Also recorded” adds a separate entry of the source.

Assays:
[1] = tested on: hypoxia-induced VEGF production in HeLa cells; test: cells; type: cell-based, human; conditions: Homo sapiens, HeLa
[2] = tested on: HT1080 xenografts; test: HT1080 xenograft tumor growth in male athymic nude mice; type: in vivo; conditions: study #24a; 10 mg/kg QD; in words
Description: Experimental Design. HT1080 cells (5×10^6 cells/mouse) were implanted subcutaneously in male athymic nude mice. […] For comparison, Compound #10 was included in this study.

[3] = tested on: 786-O cells; test: 786-O renal cell carcinoma xenograft (VHL-negative), tumor volume; type: in vivo, mice; conditions: for Median time for tumors to reach 1000 mm^3: Compound #10 10 mg/kg QD PO, time on study used if not reached; for Median time for tumors to reach 1000 mm^3 / Tumors smaller than those in vehicle-treated mice: sunitinib 75 mg/kg QD PO, rapamycin 15 mg/kg PO; for Tumors smaller than those in vehicle-treated mice: Day 57, Compound #10 10 mg/kg QD PO
Description: Both sunitinib and rapamycin are used clinically for treatment of renal cancer.
(§1) A total of 100 mice were injected, of which 60 were used in the study.
Groups were taken off study when the mean tumor volume in a group was 1300 mm^3 or more. Vehicle-treatment started on Day 0 and continued through Day 57. Compound #10-treatment started on Day 0 and continued through Day 88.
(§2) Tumors were measured twice per week using digital calipers.
The time to progression to reach a tumor volume 1000 mm^3 was calculated for each mouse. The median values were reported.

[4] = tested on: Caki-1 cells; test: Caki-1 renal cell carcinoma xenograft (VHL-positive), tumor volume; type: in vivo, mice; conditions: for Median time for tumors to reach 1000 mm^3: Compound #10 10 mg/kg QD PO; for Median time for tumors to reach 1000 mm^3 / Tumors smaller than those in vehicle-treated mice: sunitinib 75 mg/kg QD PO, rapamycin 15 mg/kg PO; for Tumors smaller than those in vehicle-treated mice: Day 35, Compound #10 10 mg/kg QD PO
Description: The Caki-1 cell line expresses the von Hippel-Lindau (VHL) protein which acts as a tumor suppressor by promoting the rapid degradation of HIF-1α (hypoxia-inducible factor 1α) under normoxia. Under hypoxic conditions, HIF-1α is stabilized and activated by the inability of VHL to act resulting in increased transcription of VEGF that is responsible for the high vascularization of RCC (see Turcotte et al, 2003, Zimmer et al, 2004).
as §1
Groups were taken off study when the mean tumor volume in a group was 1300 mm^3 or more. Vehicle-treatment started on Day 0 and continued through Day 35. Compound #10-treatment started on Day 0 and continued through Day 52.
as §2
[…] The median values were reported.

[5] = Caki-1 xenograft study: body weight and clinical observations; type: in vivo, mice; conditions: Caki-1 study
Description: Body Weight: The mice were weighed once per week.

[6] = mouse, in vivo
[7] = 786-O xenograft study: body weight and clinical observations; conditions: 786-O study

| Structure (SMILES) | EC50 [1] | further results |
| --- | --- | --- |
| O=C(Oc1ccc(Cl)cc1)N1CCc2c([nH]c3ccc(Cl)cc23)[C@H]1c1ccc(OCC[C@H](O)CO)cc1 [Compound 1330] | > 1000 nM | Growth of HT1080 tumors in vivo (FIG. 4) [2]: overlapped with the growth of tumors in mice treated with 0.5% HPMC vehicle |
| CN1C(=O)CN(CCCOc2ccc(C3c4[nH]c5ccc(Cl)cc5c4CCN3C(=O)Oc3ccc(Cl)cc3)cc2)C1=O (centres unmarked) [Compound 1673] | < 8 nM | – |
| CC#CCOC(=O)N1CCc2c([nH]c3ccc(Cl)cc23)[C@@H]1c1ccc(OC2CCN(c3ncccn3)CC2)cc1 [Compound 1678] | < 8 nM | – |
| CC#CCOC(=O)N1CCc2c([nH]c3ccc(Cl)cc23)[C@@H]1c1ccc(OC2CCN(CCN3CCOCC3)CC2)cc1 [Compound 1679] | 8 to 40 nM | – |
| CC#CCOC(=O)N1CCc2c([nH]c3ccc(Cl)cc23)[C@@H]1c1ccc(OC2CCN(C(=O)OCCN3CCOCC3)CC2)cc1 [Compound 1680] | < 8 nM | – |
| O=C(Oc1ccc(Cl)cc1)N1CCc2c([nH]c3ccc(Cl)cc23)[C@@H]1c1ccc(OC2CCN(CCN3CCOCC3)CC2)cc1 [Compound 1682] | < 8 nM | – |
| CC#CCOC(=O)N1CCc2c([nH]c3ccc(Cl)cc23)[C@@H]1c1ccc(OC2CCNCC2)cc1 [Compound 1683] | 8 to 40 nM | – |
| CC#CCOC(=O)N1CCc2c([nH]c3ccc(Cl)cc23)[C@@H]1c1ccc(OC2CCN(C)CC2)cc1 [Compound 1684] | 8 to 40 nM | – |
| O=C(OCC1CCCC1)N1CCc2c([nH]c3ccc(Cl)cc23)[C@@H]1c1ccc(OC[C@H](O)CO)cc1 [Compound 1685] | < 8 nM | – |
| O=C(OCC1CCCC1)N1CCc2c([nH]c3ccc(Cl)cc23)[C@@H]1c1ccc(OC[C@@H](O)CO)cc1 [Compound 1686] | < 8 nM | – |
| CCC(CO)(CO)COc1ccc([C@H]2c3[nH]c4ccc(Cl)cc4c3CCN2C(=O)OCC2CCCC2)cc1 [Compound 1687] | < 8 nM | – |
| COc1ncc(C2NCCc3c2[nH]c2ccc(Cl)cc32)cn1 (centres unmarked) [Compound 1688] | > 1000 nM | – |
| COc1ncc(C2c3[nH]c4ccc(Cl)cc4c3CCN2C(=O)Oc2ccc(Cl)cc2)cn1 (centres unmarked) [Compound 1689] | 8 to 40 nM | – |
| COc1ncc(C2c3[nH]c4ccc(Cl)cc4c3CCN2C(=O)Oc2ccc(F)cc2)cn1 (centres unmarked) [Compound 1690] | 8 to 40 nM | – |
| CCOC(=O)N1CCc2c([nH]c3ccc(Cl)cc23)C1c1cnc(OC)nc1 (centres unmarked) [Compound 1691] | 40 to 200 nM | – |
| CC#CCOC(=O)N1CCc2c([nH]c3ccc(Cl)cc23)C1c1cnc(OC)nc1 (centres unmarked) [Compound 1692] | 8 to 40 nM | – |
| O=C(OCCN1CCOCC1)N1CCC(Oc2ccc([C@H]3c4[nH]c5ccc(Cl)cc5c4CCN3C(=O)Oc3ccc(Cl)cc3)cc2)CC1 [Compound 1693] | < 8 nM | – |
| CN1CCC(Oc2ccc([C@H]3c4[nH]c5ccc(Cl)cc5c4CCN3C(=O)Oc3ccc(Cl)cc3)cc2)CC1 [Compound 1694] | < 8 nM | – |
| CCOC(=O)N1CCc2c([nH]c3ccc(Cl)cc23)[C@@H]1c1ccc(OC2OC(CO)C(O)C(O)C2O)cc1 (some centres unmarked) [Compound 1696] | > 1000 nM | – |
| CC#CCOC(=O)N1CCc2c([nH]c3ccc(Cl)cc23)[C@@H]1c1ccc(OC2CCN(C[C@H](O)CO)CC2)cc1 [Compound 1697] | < 8 nM | – |
| CCOC(=O)N1CCc2c([nH]c3ccc(Cl)cc23)[C@@H]1c1ccc(OC2COC2)cc1 [Compound 1699] | < 8 nM | – |
| CCOC(=O)N1CCc2c([nH]c3ccc(Cl)cc23)[C@@H]1c1ccc(Oc2ncc(CS(C)(=O)=O)s2)cc1 [Compound 1700] | < 8 nM | – |

| Structure (SMILES) | EC50 [1] | further results |
| --- | --- | --- |
| O=C(Oc1ccc(Cl)cc1)N1CCc2c([nH]c3ccc(Cl)cc23)[C@@H]1c1ccc(OC2CCN(CC[C@H](O)CO)CC2)cc1 [Compound 1703] | 200 to 1000 nM | – |
| O=C(Oc1ccc(Cl)cc1)N1CCc2c([nH]c3ccc(Cl)cc23)[C@@H]1c1ccc(OC2CCN(C[C@H](O)CO)CC2)cc1 [Compound 1704] | 8 to 40 nM | – |
| CC#CCOC(=O)N1CCc2c([nH]c3ccc(Cl)cc23)[C@@H]1c1ccc(OC2CCN(CC[C@H](O)CO)CC2)cc1 [Compound 1705] | 40 to 200 nM | – |
| CCNC(=O)C(=O)N1CCc2c([nH]c3ccc(Cl)cc23)C1c1ccc(OC)cc1 (centres unmarked) [Compound 1706] | 40 to 200 nM | – |
| COc1ccc(C2c3[nH]c4ccc(Cl)cc4c3CCN2C(=O)C(=O)NC(C)C)cc1 (centres unmarked) [Compound 1707] | 40 to 200 nM | – |
| CCCNC(=O)C(=O)N1CCc2c([nH]c3ccc(Cl)cc23)C1c1ccc(OC)cc1 (centres unmarked) [Compound 1708] | 200 to 1000 nM | – |
| COc1ccc(C2c3[nH]c4ccc(Cl)cc4c3CCN2C(=O)C(=O)NC2CCCC2)cc1 (centres unmarked) [Compound 1710] | 40 to 200 nM | – |
| COc1ccc(C2c3[nH]c4ccc(Cl)cc4c3CCN2C(=O)C(=O)Nc2ccc(Cl)cc2)cc1 (centres unmarked) [Compound 1711] | 8 to 40 nM | – |
| COc1ccc(C2c3[nH]c4ccc(Cl)cc4c3CCN2C(=O)C(=O)Nc2ccc(C)cc2)cc1 (centres unmarked) [Compound 1712] | 8 to 40 nM | – |
| COc1ccc(C2c3[nH]c4ccc(Cl)cc4c3CCN2C(=O)C(=O)Nc2ccc(F)cc2)cc1 (centres unmarked) [Compound 1713] | 40 to 200 nM | – |
| COc1ccc(C2c3[nH]c4ccc(Cl)cc4c3CCN2C(=O)C(=O)Nc2ccc(C#N)cc2)cc1 (centres unmarked) [Compound 1716] | 200 to 1000 nM | – |
| COc1ccc(C2c3[nH]c4ccc(Cl)cc4c3CCN2C(=O)C(=O)OCC2CC2)cc1 (centres unmarked) [Compound 1717] | 8 to 40 nM | – |
| COc1ccc(C2c3[nH]c4ccc(Cl)cc4c3CCN2C(=O)C(=O)OCC2CCC2)cc1 (centres unmarked) [Compound 1718] | 8 to 40 nM | – |
| COc1ccc(C2c3[nH]c4ccc(Cl)cc4c3CCN2C(=O)C(=O)OC2CCCC2)cc1 (centres unmarked) [Compound 1719] | > 1000 nM | – |
| COc1ccc(C2c3[nH]c4ccc(Cl)cc4c3CCN2C(=O)C(=O)Oc2ccc(Cl)cc2)cc1 (centres unmarked) [Compound 1720] | > 1000 nM | – |
| COc1ccc(C2c3[nH]c4ccc(Cl)cc4c3CCN2C(=O)C(=O)Oc2ccc(C)cc2)cc1 (centres unmarked) [Compound 1721] | > 1000 nM | – |
| COc1ccc(C2c3[nH]c4ccc(Cl)cc4c3CCN2C(=O)C(=O)Oc2ccc(F)cc2)cc1 (centres unmarked) [Compound 1722] | > 1000 nM | – |
| COc1ccc(OC(=O)C(=O)N2CCc3c([nH]c4ccc(Cl)cc34)C2c2ccc(OC)cc2)cc1 (centres unmarked) [Compound 1723] | > 1000 nM | – |
| COc1ccc(C2c3[nH]c4ccc(Cl)cc4c3CCN2C(=O)C(=O)Oc2ccccc2)cc1 (centres unmarked) [Compound 1724] | > 1000 nM | – |
| CO[C@H]1C[C@@H]2CC[C@@H](C)[C@@](O)(O2)C(=O)C(=O)N2CCCC[C@H]2C(=O)O[C@H]([C@H](C)C[C@@H]2CC[C@@H](O)[C@H](OC)C2)CC(=O)[C@H](C)/C=C(\C)[C@@H](O)[C@@H](OC)C(=O)[C@H](C)C[C@H](C)/C=C/C=C/C=C/1C [rapamycin] | – | Median time for tumors to reach 1000 mm^3 [3]: 87 days; Tumors smaller than those in vehicle-treated mice [3]: 49%; Tumor size (mean±SD) ([3]; Day 93, 15 mg/kg PO): 1715±393 mm^3; Median time for tumors to reach 1000 mm^3 [4]: 43 days; Tumors smaller than those in vehicle-treated mice [4]: 60%; Tumor size (mean±SD) ([4]; Day 63, 15 mg/kg PO): 1689±1081 mm^3; Body weight loss ([5]; Day 8): 4.3%; Body weight loss ([5]; Day 14): 5.8%; Mice of the treatment group that had died ([5]; by Day 65): 6 of the 10 mice; Body weight change from initial body weight ([5]; in words): transiently lost weight; Individual mice found dead or sacrificed ([5]; in words): found dead on Day 14; also recorded: found dead on Day 62; also recorded: found dead on Day 63; Mice of the treatment group that had died or were sacrificed due to sickness [6]: 1 of the 10 mice; Body weight loss ([7]; Day 7): 2.4%; Body weight loss ([7]; Day 14): 2.8%; Survival of treated mice ([7]; all mice, in words): survived until sacrificed; Body weight change from initial body weight ([7]; in words): transiently lost weight |
| CCN(CC)CCNC(=O)c1c(C)[nH]c(/C=C2\C(=O)Nc3ccc(F)cc32)c1C [sunitinib] | – | Median time for tumors to reach 1000 mm^3 [3]: 119 days; Tumors smaller than those in vehicle-treated mice [3]: 83%; Tumor size (mean±SD) ([3]; Day 119, 75 mg/kg QD, PO): 709938 mm^3; Median time for tumors to reach 1000 mm^3 [4]: 66 days; Tumors smaller than those in vehicle-treated mice [4]: 66%; Tumor size (mean±SD) ([4]; Day 98, 75 mg/kg QD, PO): 1494±1150 mm^3; Clinical observation: skin ([5]; from Day 8 onward, all mice, in words): yellow-tinged skin; Body weight change from initial body weight ([5]; in words): transiently lost weight; Individual mice found dead or sacrificed ([5]; in words): sacrificed on Day 4; also recorded: found dead on Day 17; also recorded: found dead on Day 95; Mice of the treatment group that had died or were sacrificed due to sickness [6]: 1 of the 10 mice; Survival of treated mice ([7]; all mice, in words): survived until sacrificed; Clinical observation: skin ([7]; from Day 7 onward, all mice, in words): yellow-tinged skin; Body weight change from initial body weight ([7]; in words): transiently lost weight |
